Converted amounts (≈) assume the structure as drawn. Like-named read-outs stand apart in the source and are kept apart here.
Columns and labels:
[1] = cited from earlier work
[2] = Crystallinity studies by x-ray diffraction (WAXS in transmission); format: physicochemical
Text: FIG. 2 crystallinity studies (WAXS in transmission) of the GGE active ingredient in the C16 spider silk protein formulations obtained by electrospinning compared to the pure substances (GGE or C16 powder);
FIG. 6 crystallinity studies (WAXS in transmission) of the clotrimazole active ingredient in the C16 spider silk protein formulations obtained by electrospinning compared to pure clotrimazole;
FIG. 9 crystallinity studies (WAXS in transmission) of the metazachlor active ingredient in the C16 spider silk protein formulations obtained by electrospinning compared to pure metazachlor;
FIG. 12 crystallinity studies (WAXS in transmission) of the Uvinul A+ active ingredient in the C16 spider silk protein formulations obtained by electrospinning compared to Uvinul A+ pure substance;
FIG. 16 crystallinity studies (WAXS in transmission) of the Uvinul A+ active ingredient in the R16 protein nonwoven (A) and S16 protein nonwoven (B) obtained by electrospinning compared to pure Uvinul A+;

## NC(=O)N1c2ccccc2C=Cc2ccccc21 [Carbamazipine]
[1]; RT
  Solubility in water: 945.1 µg/mL (≈ 4000 µM)

## Clc1ccccc1C(c1ccccc1)(c1ccccc1)n1ccnc1 [Clotrimazole]
[1]; 25° C.
  Solubility in water: <10 µg/mL

## Cc1cccc(C)c1N(Cn1cccn1)C(=O)CCl [metazachlor]
[2]
  crystallinity of the active ingredient in x-ray diffraction: significant crystalline proportions
